Results: patent US20200376291A1, “PHOTOBIOMODULATION THERAPY TO DELAY DYSTROPHY PROGRESSION” (Multi Radiance Medical, priority 2017, published 2020)

Experiments:
Format in all cases: in vivo
[1] = tested on: dystrophin; assay: Dystrophin in tibialis anterior muscle of mdx mice by immunohistochemistry; settings: treated for 14 weeks from 6 weeks of age, prednisone 1.5 mg/kg per day, ibuprofen 25 mg/kg per day, PBMT 3 times a week, FIG. 18
Procedure: Mice were randomly divided into 7 different experimental groups: Wild Type (WT), Placebo-control (mdx mice), Prednisone (mdx mice), NSAID (mdx mice), […], and PBMT+NSAID (mdx mice). Prednisone (glucocorticoid) treatment was administered to animals daily with a dose of 1.5 mg/kg per day; NSAID treatment with ibuprofen was also administered to animals daily with a dose of 25 mg/kg per day. PBMT was performed employing a cluster probe (Multi Radiance Medical, Solon, Ohio) with 9 diodes (1 super-pulsed laser diode (905 nm), four LED diodes (875 nm), and 4 LED diodes (650 nm). PBMT was applied 3 times a week with direct contact to the animal's skin on hindlimb at a single point (tibialis anterior muscle—bilaterally). For combined treatments, each modality was applied as described previously. All treatments were performed during 14 weeks and started with animals at 6 weeks of age. The analysis consisted of muscle morphology, dystrophin through itntnunohistochetnistry and functional performance.

[2] = tested on: mdx mice; assay: Functional performance assessment in mdx mice; settings: treated for 14 weeks from 6 weeks of age, FIG. 19
Procedure: The PBMT was analyzed using a functional performance evaluation protocol. The functional performance evaluation protocol included the animal climbing stairs with the following dimensions (1×0.09 m, distance between the steps of 0.5 cm and)80° using the animal's body weight (the protocol began with the animal's familiarization, in two sessions with a 24-h interval between the sessions). The aim of the sessions was to teach the mouse to move up the steps and consisted of three repetitions to the top, with a 60 s interval to rest. If necessary, a clamp stimulus for the animal to start moving was applied. After this familiarization, the assessments were performed before the treatments begin and 24-h after the last treatment, in order to evaluate how many times each mouse was able to climb up the stairs until the animal came to fatigue. Fatigue was identified when the animal could no longer perform the activity.
(§1) Mice were randomly divided into 7 different experimental groups: Wild Type (WT), Placebo-control (mdx mice), Prednisone (mdx mice), NSAID (mdx mice), […], and PBMT+NSAID (mdx mice). Prednisone (glucocorticoid) treatment was administered to animals daily with a dose of 1.5 mg/kg per day; NSAID treatment with ibuprofen was also administered to animals daily with a dose of 25 mg/kg per day. […]

[3] = tested on: mdx mice; assay: Skeletal muscle tissue morphology (histological sections, HE) in mdx mice; settings: treated for 14 weeks from 6 weeks of age, tibialis anterior muscle, FIGS. 13-17
Procedure: The tibialis anterior muscles of the animal's hind paw were collected and stored in 10% buffered formalin for histological processing; then, hematoxylin and eosin staining was performed in a routine method. Slides were photographed, and the morphology of the skeletal striated muscle fibers was analyzed (Eclipse E-200; Nikon, Tokyo, Japan). Images of all groups were obtained using the 400x magnification. The images were presented with a similar photographic pattern.
as §1

| SMILES | dystrophin compared to the placebo-control group [1] | muscular function compared to the placebo-control group [2] | morphological aspects of skeletal muscle [3] |
| --- | --- | --- | --- |
| CC(C)Cc1ccc(C(C)C(=O)O)cc1 (stereo not shown) [NSAID, ibuprofen] | no significant increase in dystrophin | – | – |
| C[C@]12C=CC(=O)C=C1CC[C@@H]1[C@@H]2C(=O)C[C@@]2(C)[C@H]1CC[C@]2(O)C(=O)CO [Prednisone] | increased dystrophin | improved muscular function | improvement in the morphological aspects of skeletal muscle |
